≈ marks a conversion by molar mass, not a printed value.
What was measured:
Format in all cases: functional
[1] = system: Cydia pomonella; experiment: Insecticidal activity against Cydia pomonella (codling moth) at 8 mg/kg assessed as growth regulation measured as number of head capsules of larvae after 10 days of continuous exposure Rvb = (1.5 +/- 0.2%)
[2] = system: Cydia pomonella; experiment: Insecticidal activity against Cydia pomonella (codling moth) at 1 mg/kg assessed as growth regulation measured as number of head capsules of larvae after 10 days of continuous exposure Rvb = (1.5 +/- 0.2%)
[3] = system: Cydia pomonella; experiment: Insecticidal activity against Cydia pomonella (codling moth) assessed as mortality at 18 mg/kg diet topically measured after 5 days of continuous exposure (reference value: 0%); settings: topical, 120 h
[4] = system: Cydia pomonella; experiment: Insecticidal activity against Cydia pomonella (codling moth) assessed as mortality at 8 mg/kg diet topically measured after 5 days of continuous exposure (reference value: 0%); settings: topical, 120 h
[5] = system: Cydia pomonella; experiment: Insecticidal activity against Cydia pomonella (codling moth) at 12 mg/kg assessed as growth regulation measured as number of head capsules of larvae after 10 days of continuous exposure Rvb = (1.5 +/- 0.2%)
[6] = system: Cydia pomonella; experiment: Insecticidal activity against Cydia pomonella (codling moth) at 4 mg/kg assessed as growth regulation measured as number of head capsules of larvae after 5 days of continuous exposure (reference value: 0.2 +/- 0.2%)
[7] = system: Cydia pomonella; experiment: Antifeedant activity against Cydia pomonella (codling moth) at 2 mg/kg diet topically measured after 10 days of continuous exposure (reference value: 6.7 +/- 6.7%)
[8] = system: Cydia pomonella; experiment: Insecticidal activity against Cydia pomonella (codling moth) at 1 mg/kg assessed as growth regulation measured as number of head capsules of larvae after 5 days of continuous exposure (reference value: 0.2 +/- 0.2%)
[9] = system: Cydia pomonella; experiment: Antifeedant activity against Cydia pomonella (codling moth) at 8 mg/kg diet topically measured after 10 days of continuous exposure (reference value: 6.7 +/- 6.7%)
[10] = system: Cydia pomonella; experiment: Antifeedant activity against Cydia pomonella (codling moth) at 8 mg/kg diet topically measured after 5 days of continuous exposure (reference value: 6.7 +/- 6.7%)
[11] = system: Cydia pomonella; experiment: Insecticidal activity against Cydia pomonella (codling moth) at 16 mg/kg assessed as growth regulation measured as number of head capsules of larvae after 5 days of continuous exposure (reference value: 0.2 +/- 0.2%)
[12] = system: Cydia pomonella; experiment: Insecticidal activity against Cydia pomonella (codling moth) assessed as mortality at 2 mg/kg diet topically measured after 10 days of continuous exposure (reference value: 3.3 +/- 3.3%); settings: topical, 240 h
[13] = system: Cydia pomonella; experiment: Insecticidal activity against Cydia pomonella (codling moth) assessed as mortality at 6 mg/kg diet topically measured after 10 days of continuous exposure (reference value: 3.3 +/- 3.3%); settings: topical, 240 h
[14] = system: Cydia pomonella; experiment: Insecticidal activity against Cydia pomonella (codling moth) assessed as mortality at 16 mg/kg diet topically measured after 5 days of continuous exposure (reference value: 0%); settings: topical, 120 h
[15] = system: Cydia pomonella; experiment: Insecticidal activity against Cydia pomonella (codling moth) at 8 mg/kg assessed as growth regulation measured as number of head capsules of larvae after 5 days of continuous exposure (reference value: 0.2 +/- 0.2%)
[16] = system: Cydia pomonella; experiment: Insecticidal activity against Cydia pomonella (codling moth) assessed as mortality at 12 mg/kg diet topically measured after 10 days of continuous exposure (reference value: 3.3 +/- 3.3%); settings: topical, 240 h
[17] = system: Cydia pomonella; experiment: Antifeedant activity against Cydia pomonella (codling moth) at 6 mg/kg diet topically measured after 5 days of continuous exposure (reference value: 6.7 +/- 6.7%)
[18] = system: Cydia pomonella; experiment: Antifeedant activity against Cydia pomonella (codling moth) at 6 mg/kg diet topically measured after 10 days of continuous exposure (reference value: 6.7 +/- 6.7%)
[19] = system: Cydia pomonella; experiment: Insecticidal activity against Cydia pomonella (codling moth) at 18 mg/kg assessed as growth regulation measured as number of head capsules of larvae after 5 days of continuous exposure (reference value: 0.2 +/- 0.2%)
[20] = system: Cydia pomonella; experiment: Insecticidal activity against Cydia pomonella (codling moth) at 16 mg/kg assessed as growth regulation measured as number of head capsules of larvae after 10 days of continuous exposure Rvb = (1.5 +/- 0.2%)
[21] = system: Cydia pomonella; experiment: Insecticidal activity against Cydia pomonella (codling moth) assessed as mortality at 16 mg/kg diet topically measured after 10 days of continuous exposure (reference value: 3.3 +/- 3.3%); settings: topical, 240 h
[22] = system: Cydia pomonella; experiment: Antifeedant activity against Cydia pomonella (codling moth) at 16 mg/kg diet topically measured after 10 days of continuous exposure (reference value: 6.7 +/- 6.7%)
[23] = system: Cydia pomonella; experiment: Insecticidal activity against Cydia pomonella (codling moth) assessed as mortality at 1 mg/kg diet topically measured after 10 days of continuous exposure (reference value: 3.3 +/- 3.3%); settings: topical, 240 h
[24] = system: Cydia pomonella; experiment: Insecticidal activity against Cydia pomonella (codling moth) at 6 mg/kg assessed as growth regulation measured as number of head capsules of larvae after 10 days of continuous exposure Rvb = (1.5 +/- 0.2%)
[25] = system: Cydia pomonella; experiment: Insecticidal activity against Cydia pomonella (codling moth) assessed as mortality diet topically measured after 5 days of continuous exposure; settings: topical, 120 h
[26] = system: Cydia pomonella; experiment: Insecticidal activity against Cydia pomonella (codling moth) assessed as mortality at 20 mg/kg diet topically measured after 10 days of continuous exposure (reference value: 3.3 +/- 3.3%); settings: topical, 240 h
[27] = system: Cydia pomonella; experiment: Insecticidal activity against Cydia pomonella (codling moth) assessed as mortality at 18 mg/kg diet topically measured after 10 days of continuous exposure (reference value: 3.3 +/- 3.3%); settings: topical, 240 h
[28] = system: Cydia pomonella; experiment: Antifeedant activity against Cydia pomonella (codling moth) at 20 mg/kg diet topically measured after 5 days of continuous exposure (reference value: 6.7 +/- 6.7%)
[29] = system: Cydia pomonella; experiment: Antifeedant activity against Cydia pomonella (codling moth) at 2 mg/kg diet topically measured after 5 days of continuous exposure (reference value: 6.7 +/- 6.7%)
[30] = system: Cydia pomonella; experiment: Insecticidal activity against Cydia pomonella (codling moth) assessed as mortality treated diet topically measured after 10 days of continuous exposure; settings: topical, 240 h
[31] = system: Cydia pomonella; experiment: Insecticidal activity against Cydia pomonella (codling moth) at 6 mg/kg assessed as growth regulation measured as number of head capsules of larvae after 5 days of continuous exposure (reference value: 0.2 +/- 0.2%)
[32] = system: Cydia pomonella; experiment: Insecticidal activity against Cydia pomonella (codling moth) assessed as mortality at 2 mg/kg diet topically measured after 5 days of continuous exposure (reference value: 0%); settings: topical, 120 h
[33] = system: Cydia pomonella; experiment: Antifeedant activity against Cydia pomonella (codling moth) at 18 mg/kg diet topically measured after 10 days of continuous exposure (reference value: 6.7 +/- 6.7%)
[34] = system: Cydia pomonella; experiment: Insecticidal activity against Cydia pomonella (codling moth) at 4 mg/kg assessed as growth regulation measured as number of head capsules of larvae after 10 days of continuous exposure Rvb = (1.5 +/- 0.2%)
[35] = system: Cydia pomonella; experiment: Insecticidal activity against Cydia pomonella (codling moth) at 20 mg/kg assessed as growth regulation measured as number of head capsules of larvae after 5 days of continuous exposure (reference value: 0.2 +/- 0.2%)

Compound: CC1=C(O)C(=O)C=C2C1=CC=C1[C@@]2(C)CC[C@@]2(C)[C@@H]3C[C@](C)(O)C(=O)C[C@]3(C)CC[C@]12C [20ALPHA-HYDROXYTINGENONE]
- Activity [1]: 0.2
- Activity [2]: 1.2
- mortality at 18 mg/kg [3]: 86.7%
- mortality at 8 mg/kg [4]: 3.3%
- Activity [5]: 0.3
- Activity [6]: 0
- Activity [7]: 3.3%
- Activity [8]: 0.1
- Activity [9]: 80%
- Activity [10]: 100%
- Activity [11]: 0
- mortality at 2 mg/kg [12]: 0%
- mortality at 6 mg/kg [13]: 23.3%
- mortality at 16 mg/kg [14]: 60%
- Activity [15]: 0
- mortality at 12 mg/kg [16]: 60%
- Activity [17]: 83.3%
- Activity [18]: 53.3%
- Activity [19]: 0
- Activity [20]: 0
- mortality at 16 mg/kg [21]: 93.3%
- Activity [22]: 100%
- mortality at 1 mg/kg [23]: 3.3%
- Activity [24]: 0.6
- LC50 [25]: 13 mg/mL (≈ 29.8 mM)
- mortality at 20 mg/kg [26]: 100%
- mortality at 18 mg/kg [27]: 93.3%
- Activity [28]: 100%
- Activity [29]: 36.7%
- LC50 [30]: 8.5 mg/mL (≈ 19.5 mM)
- Activity [31]: 0
- mortality at 2 mg/kg [32]: 0%
- Activity [33]: 100%
- Activity [34]: 0.6
- Activity [35]: 0

From ChEMBL document CHEMBL3046339, “Insecticidal activity of Maytenus species (Celastraceae) nortriterpene quinone methides against codling moth, Cydia pomonella (L.) (Lepidoptera: tortricidae)” (2000)
